Assay results published in US20250215017A1, “TGF-ß INHIBITOR COMPOUND AND USE THEROF” (Medinno Pharmaceutical Technology (Zhuhai) Co., Ltd., priority 2022, published 2025).

target: human TGFβR1 (Homo sapiens (Human), UniProt P36897); assay: ADP-Glo kinase activity assay: TGFβR1 phosphorylates TGFβR1tide; assay type: biochemical; conditions: ATP 5 uM, TGFβR1 0.5 ng/ul, TGFβR1tide 0.1 ug/ul, 60 minutes at room temperature
Description: The principle of the activity assay was that TGFβR1 phosphorylates the substrate TGFβR1tide, consuming ATP in the process. This experiment employed the ADP-Glo method to detect kinase activity and determine the IC50 value, which was used to evaluate the inhibitory ability of the test compounds against human TGFβR1. In the experiment, DSM was used as a negative control, and LY364947 was used as a positive control. The specific experimental steps were as follows. Compounds were diluted 4-fold in DMSO in a dilution plate, with the final starting concentration of the compounds being 10 μM, across 10 concentration gradient points. The compounds were then further diluted 50-fold into the kinase reaction buffer and incubated on a shaker for 20 minutes. Kinase was formulated with an enzyme reaction buffer. 2 μl kinase was added to each well of the reaction plate. 1 μl of the compound diluted in buffer was added to each well, and then the plate was sealed with a sealing membrane and centrifuged at 1000 g for 30 seconds, leaving it at room temperature for 10 minutes. Solutions of TGFβR1tide and ATP were prepared with the kinase reaction buffer, and 2 μL of the TGFβR1tide/ATP solution was added to the reaction plate. The plate was sealed with a sealing film and centrifuged at 1000 g for 30 seconds. It was allowed to react at room temperature for 60 minutes. Subsequently, 4 μL of ADP-Glo was transferred to a 384-well reaction plate and centrifuged at 1000 rpm/min for 1 minute, followed by incubation at 25° C. for 40 minutes. Then, 8 μL of Detection solution was transferred to the 384-well reaction plate and centrifuged at 1000 rpm/min for 1 minute, after which it was incubated at 25° C. for 40 minutes. The RLU (Relative Luminescence Unit) signal was read using a BMG microplate reader, which was used to characterize the degree of kinase activity.
3.1 The inhibition rate was calculated as follows: inhibition rate of compound (% inh)=100%−(compound−positive control)/(negative control−positive control)*100%.
The IC50 (half inhibition concentration) of a compound was obtained using the following non-linear fitting equation, wherein data analysis was performed using Graphpad 7.0 software.
• 3.3.1 After an experimenter completed the report writing, another experimenter conducted a second inspection to ensure the accuracy of data analysis. • 3.3.2 Data were exported from BMG and analyzed manually. • 3.3.2.1 The ratios were converted to inhibition rates and IC50 was calculated by Prism GraphPad 7.0 from the inhibition rates. • 3.3.2.2 IC50 was calculated again by the ratios to verify accuracy of the results.

Chain of human TGFβR1 (P36897 34-503): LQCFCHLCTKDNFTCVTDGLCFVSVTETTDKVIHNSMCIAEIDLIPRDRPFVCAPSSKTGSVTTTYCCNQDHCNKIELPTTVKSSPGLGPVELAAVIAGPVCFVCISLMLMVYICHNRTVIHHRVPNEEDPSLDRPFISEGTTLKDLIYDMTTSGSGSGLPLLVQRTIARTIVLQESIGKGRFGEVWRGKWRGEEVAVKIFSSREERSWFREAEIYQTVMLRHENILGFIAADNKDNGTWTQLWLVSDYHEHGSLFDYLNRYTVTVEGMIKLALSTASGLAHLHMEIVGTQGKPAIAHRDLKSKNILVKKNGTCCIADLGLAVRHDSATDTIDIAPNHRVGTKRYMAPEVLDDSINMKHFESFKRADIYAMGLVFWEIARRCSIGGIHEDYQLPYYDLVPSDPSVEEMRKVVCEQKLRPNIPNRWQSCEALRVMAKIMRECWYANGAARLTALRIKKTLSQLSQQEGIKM

| IC50 | SMILES |
| --- | --- |
| 0.015 µM | Cc1cccc(-c2nc3n(c2-c2ccc4[nH]ncc4c2)CC2CC32)n1 (stereo not drawn) [Compound 5, 3-(1H-Indazol-5-yl)-2-(6-methylpyridin-2-yl)-5,5a,6,6a-tetrahydrocyclopropane[3,4]pyrrolo[1,2-a]imidazole] |
| 0.05 µM | Cc1cccc(-c2nc3n(c2-c2ccc4nccn4c2)CC2CC32)n1 (stereo not drawn) [Compound 19, 3-(Imidazolo[1,2-a]pyridin-6-yl)-2-(6-methylpyrridin-2-yl)-5,5a,6,6a-tetrahydrocyclopropane[3,4]pyrrolo[1,2-a]imidazole] |
| 0.006 µM | Cc1cccc(-c2nc3n(c2-c2ccc4ncsc4c2)CC2CC32)n1 (stereo not drawn) [Compound 21, 6-(2-(6-Methylpyridin-2-yl)-5,5a,6,6a-tetrahydrocyclopropane[3,4]pyrrolo[1,2-a]imidazol-3-yl)benzo[d]thiazole] |
| 0.013 µM | Cc1cccc(-c2nc3n(c2-c2ccn4nccc4c2)CC2CC32)n1 (stereo not drawn) [Compound 36, 2-(6-Methylpyridin-2-yl)-3-(pyrazolo[1,5-a]pyridin-5-yl)-5,5a,6,6a-tetrahydrocyclopropyl[3,4]pyrrolo[1,2-a]imidazole] |
| 0.0049 µM | Cc1cccc(-c2nc3n(c2-c2ccc4ncn(C)c4c2)CC2CC32)n1 (stereo not drawn) [Compound 16, 3-(1-Methyl-1H-benzo[d]imidazol-6-yl)-2-(6-methylpyridin-2-yl)-5,5a,6,6a-tetrahydrocyclopropane[3,4]pyrrolo[1,2-a]imidazole] |
| 0.022 µM | Cc1cccc(-c2nc3n(c2-c2ccnc(-c4nc5c([nH]4)CNC5)c2)CC2CC32)n1 (stereo not drawn) [Compound 8, 2-(6-Methylpyridin-2-yl)-3-(2-(1,4,5,6-tetrahydropyrrolo[3,4-d]imidazol-2-yl)pyridin-4-yl)-5,5a,6,6a-tetrahydrocyclopropane[3,4]pyrrolo[1,2-a]imidazole] |
| 0.012 µM | Cc1cccc(-c2nc3n(c2-c2ccc4nc[nH]c4c2)CC2CC32)n1 (stereo not drawn) [Compound 35, 3-(1H-Benzo[d]imidazol-6-yl)-2-(6-methylpyridin-2-yl)-5,5a,6,6a-tetrahydrocyclopropyl[3,4]pyrrolo[1,2-a]imidazole] |
| 0.038 µM | Cc1cccc(-c2nc3n(c2-c2ccc4ncoc4c2)CC2CC32)n1 (stereo not drawn) [Compound 20, 6-(2-(6-Methylpyridin-2-yl)-5,5a,6,6a-tetrahydrocyclopropane[3,4]pyrrolo[1,2-a]imidazol-3-yl)benzo[d]oxazole] |
| 0.0056 µM | Cc1cccc(-c2nc3n(c2-c2ccc4ncnn4c2)CC2CC32)n1 (stereo not drawn) [Compound 18, 3-([1,2,4]Triazolyl[1,5-a]pyridin-6-yl)-2-(6-methylpyridin-2-yl)-5,5a,6,6a-tetrahydrocyclopropane[3,4]pyrrolo[1,2-a]imidazole] |
